Laboratory results taken from ChEMBL document CHEMBL3044550, “Insect antifeedant potent 6-substituted -bromo-2-naphthones” (2011).
Activity calls are given as the source filed them. The rule behind the calls is not given here.

What follows are compounds tested on Achaea janata (assay: Antifeedant activity against Achaea janata L. fourth-instar larvae fed on 100 ppm compound pre-treated castor leaves for 24 hrs assessed total leaf disks consumed in 24 hrs by leaf disk bioassay).
Assay type: functional, organism-based
With O=C(CBr)c1ccc2cc(Br)ccc2c1 the Activity was “Active”.

The compounds below were run on Achaea janata (assay: Achaea janata L. fourth-instar larvae fed on 200 ppm compound pre-treated castor leaves for 24 hrs assessed total leaf disks consumed in 24 hrs by leaf disk bioassay).
Assay type: functional
Compound O=C(CBr)c1ccc2cc(O)ccc2c1 has an Activity of 4. COc1ccc2cc(C(=O)CBr)ccc2c1 was tested, and the Activity was 4. With Cc1ccc2cc(C(=O)CBr)ccc2c1 the Activity was 9. In the case of CSc1ccc2cc(C(=O)CBr)ccc2c1, the Activity is reported as 8. In the case of O=C(CBr)c1ccc2cc(F)ccc2c1, the Activity is reported as 5. O=C(CBr)c1ccc2ccccc2c1 showed an Activity of 6.5. CS(=O)(=O)c1ccc2cc(C(=O)CBr)ccc2c1 was tested, and the Activity was 9. Work on O=C(CBr)c1ccc2cc(Cl)ccc2c1 yielded an Activity of 4.5. With O=C(CBr)c1ccc2cc(Br)ccc2c1 the Activity was 3.5.
